# Results from patent publication US5952328A, “Benzothiazo and related heterocyclic group-containing cysteine and serine protease inhibitors” (Cephalon, Inc., priority 1997, dated 1999).
# Target: T1, Calpain I (Homo sapiens, UniProt P07384)
# T1 construct: made in house
# T1 sequence (P07384 1-714): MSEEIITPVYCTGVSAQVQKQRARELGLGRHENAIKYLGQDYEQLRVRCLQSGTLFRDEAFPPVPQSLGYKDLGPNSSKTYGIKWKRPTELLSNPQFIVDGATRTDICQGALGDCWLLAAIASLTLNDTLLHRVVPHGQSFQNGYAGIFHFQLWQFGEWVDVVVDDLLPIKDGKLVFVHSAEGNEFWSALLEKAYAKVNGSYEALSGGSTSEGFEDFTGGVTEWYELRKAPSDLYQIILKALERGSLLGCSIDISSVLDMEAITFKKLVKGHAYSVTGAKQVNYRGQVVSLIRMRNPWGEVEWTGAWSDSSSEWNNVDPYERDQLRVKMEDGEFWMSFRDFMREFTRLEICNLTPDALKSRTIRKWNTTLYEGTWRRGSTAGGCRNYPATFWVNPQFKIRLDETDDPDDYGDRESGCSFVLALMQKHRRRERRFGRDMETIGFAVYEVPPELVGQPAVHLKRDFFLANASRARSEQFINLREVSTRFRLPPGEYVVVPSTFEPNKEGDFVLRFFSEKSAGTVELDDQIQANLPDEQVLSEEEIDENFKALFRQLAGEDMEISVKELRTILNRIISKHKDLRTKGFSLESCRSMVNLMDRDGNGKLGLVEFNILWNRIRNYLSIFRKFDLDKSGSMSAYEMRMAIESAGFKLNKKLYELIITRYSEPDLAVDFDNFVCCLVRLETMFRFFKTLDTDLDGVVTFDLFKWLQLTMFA
# T1 sequence (P04632 1-268 partner): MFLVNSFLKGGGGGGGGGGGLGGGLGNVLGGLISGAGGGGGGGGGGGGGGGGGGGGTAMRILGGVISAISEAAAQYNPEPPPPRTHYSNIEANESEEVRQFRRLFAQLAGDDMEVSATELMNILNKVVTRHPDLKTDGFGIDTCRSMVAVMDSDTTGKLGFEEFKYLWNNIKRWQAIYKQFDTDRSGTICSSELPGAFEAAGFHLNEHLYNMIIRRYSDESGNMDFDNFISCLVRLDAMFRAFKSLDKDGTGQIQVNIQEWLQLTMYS
# Test: Inhibition of calpain I activity (Succ-Leu-Tyr-MNA substrate hydrolysis, fluorescence)
# Type: biochemical
# Settings: Table III; calpain I, 0.2 mM Succ-Leu-Tyr-MNA, pH 7.5; * mixture of diastereomers, a,b single diastereomers; read-out: IC50
# Protocol: To evaluate inhibitory activity, stock solutions (40 times concentrated) of each compound to be tested were prepared in 100% anhydrous DMSO and […] of each inhibitor preparation were aliquoted into each of three wells of a 96-well plate. Calpain I, prepared by a modification of the method of W. J. Lee et al. (Biochem. […] To start the reaction, […] of 50 mM CaCl2 in assay buffer was added to each of the wells of the plate, excepting three, which were used as background signal baseline controls. Substrate hydrolysis was monitored every 5 minutes for a total of 30 minutes using a Fluoroskan II fluorescence plate reader. […] Inhibition of calpain I activity was calculated as the percent decrease in the rate of substrate hydrolysis in the presence of inhibitor relative to the rate in its absence. Comparison between the inhibited and control rates was made within the linear range for substrate hydrolysis. For screening, compounds were tested at […]. […] The results were plotted as percent inhibition versus log inhibitor concentration, and the IC50 was calculated from linear regression of the data.
row,SMILES,IC50 [nM]
1,"CCN1C(C(=O)N[C@@H](Cc2ccccc2)C(=O)C(=O)NCCNS(=O)(=O)c2ccc(F)cc2)Cc2cc3c(cc2S1(=O)=O)OCCO3 (stereo partly drawn) [Cpd 14AC, 3-((3,4-Dihydro-6,7-ethylenedioxy-2-ethyl-2H-1,2-benzothiazine-3-carbonyl)amino)-3-(S)-benzyl-2-oxo-N-(2-(4-fluorobenzenesulfonylamino)ethyl)propanamide 1,1-dioxide]",29
2,"CCCCNC(=O)C(=O)[C@H](Cc1ccccc1)NC(=O)C1Cc2cc3c(cc2S(=O)(=O)N1)OCCO3 (stereo partly drawn) [Cpd 14AD, N-Butyl-3-(3,4-Dihydro-6,7-ethylenedioxy-2H-1,2-benzothiazine-3-carboxamido)-2-oxo-3-(S)-benzylpropanamide 1,1-dioxide]",~200
3,"O=C(NCCNS(=O)(=O)c1ccccc1)C(=O)[C@H](Cc1ccccc1)NC(=O)C1Cc2cc3c(cc2S(=O)(=O)N1)OCCO3 (stereo partly drawn) [Cpd 14AE, N-(2-(Benzenesulfonylamino)ethyl)-3-(3,4-Dihydro-6,7-ethylenedioxy-2H-1,2-benzothiazine-3-carboxamido)-2-oxo-3-(S)-benzylpropanamide 1,1-dioxide]",76
4,CCNC(=O)C(=O)[C@H](Cc1ccccc1)NC(=O)C1Cc2cc3c(cc2S(=O)(=O)N1CC)OCCO3 (stereo partly drawn) [Cpd 14D],340
5,CCN1C(C(=O)N[C@@H](Cc2ccccc2)C(=O)C(=O)NCCNS(C)(=O)=O)Cc2cc3c(cc2S1(=O)=O)OCCO3 (stereo partly drawn) [Cpd 14S],89
6,"CCN1C(C(=O)N[C@@H](Cc2ccccc2)C(=O)C(=O)NCCNS(=O)(=O)c2ccc([N+](=O)[O-])cc2)Cc2cc3c(cc2S1(=O)=O)OCCO3 (stereo partly drawn) [Cpd 14T, 3-((3,4-Dihydro-6,7-ethylenedioxy-2-ethyl-2H-1,2-benzothiazine-3-carbonyl)amino)-3-(S)-benzyl-2-oxo-N-(2-(4-nitrobenzenesulfonylamino)ethyl)propanamide 1,1-dioxide]",47
7,"CCN1C(C(=O)N[C@@H](Cc2ccccc2)C(=O)C(=O)NCCCNS(=O)(=O)c2ccc([N+](=O)[O-])cc2)Cc2cc3c(cc2S1(=O)=O)OCCO3 (stereo partly drawn) [Cpd 14U, 3-((3,4-Dihydro-6,7-ethylenedioxy-2-ethyl-2H-1,2-benzothiazine-3-carbonyl)amino)-3-(S)-benzyl-2-oxo-N-(3-(4-nitrobenzenesulfonylamino)propyl)propanamide 1,1-dioxide]",50
8,"CCN1C(C(=O)N[C@@H](Cc2ccccc2)C(=O)C(=O)NCCNS(=O)(=O)c2ccccc2)Cc2cc3c(cc2S1(=O)=O)OCCO3 (stereo partly drawn) [Cpd 14X, 3-((3,4-Dihydro-6,7-ethylenedioxy-2-ethyl-2H-1,2-benzothiazine-3-carbonyl)amino)-3-(S)-benzyl-2-oxo-N-(2-(benzenesulfonylamino)ethyl)propanamide 1,1-dioxide]",40
9,CCN1C(C(=O)N[C@@H](Cc2ccccc2)C(=O)C(=O)NCCNS(=O)(=O)c2ccc(-c3ccccn3)s2)Cc2cc3c(cc2S1(=O)=O)OCCO3 (stereo partly drawn) [Cpd 14Y],20
10,"CCN1C(C(=O)N[C@@H](Cc2ccccc2)C(=O)C(=O)NCCCNS(=O)(=O)c2ccc(F)cc2)Cc2cc3c(cc2S1(=O)=O)OCCO3 (stereo partly drawn) [Cpd 14Z, 3-((3,4-Dihydro-6,7-ethylenedioxy-2-ethyl-2H-1,2-benzothiazine-3-carbonyl)amino)-3-(S)-benzyl-2-oxo-N-(3-(4-fluorobenzenesulfonylamino)propyl)propanamide 1,1-dioxide]",50

# More lines, now with the values ahead:
row,IC50 [nM],SMILES
1,35,"CCN1C(C(=O)N[C@@H](Cc2ccccc2)C(=O)C(=O)NCCCNS(=O)(=O)c2ccccc2)Cc2cc3c(cc2S1(=O)=O)OCCO3 (stereo partly drawn) [Cpd 14AA, 3-((3,4-Dihydro-6,7-ethylenedioxy-2-ethyl-2H-1,2-benzothiazine-3-carbonyl)amino)-3-(S)-benzyl-2-oxo-N-(3-(benzenesulfonylamino)propyl)propanamide 1,1-dioxide]"
2,56,"CCN1C(C(=O)N[C@@H](Cc2ccccc2)C(=O)C(=O)NCCNS(=O)(=O)c2ccc(Cl)c(Cl)c2)Cc2cc3c(cc2S1(=O)=O)OCCO3 (stereo partly drawn) [Cpd 14V, 3-((3,4-Dihydro-6,7-ethylenedioxy-2-ethyl-2H-1,2-benzothiazine-3-carbonyl)amino)-3-(S)-benzyl-2-oxo-N-(2-(3,4-dichlorobenzenesulfonylamino)ethyl)propanamide 1,1-dioxide]"
3,56,"CCN1C(C(=O)N[C@@H](Cc2ccccc2)C(=O)C(=O)NCCCNS(=O)(=O)c2ccc(Cl)c(Cl)c2)Cc2cc3c(cc2S1(=O)=O)OCCO3 (stereo partly drawn) [Cpd 14W, 3-((3,4-Dihydro-6,7-ethylenedioxy-2-ethyl-2H-1,2-benzothiazine-3-carbonyl)amino)-3-(S)-benzyl-2-oxo-N-(3-(3,4-dichlorobenzenesulfonylamino)propyl)propanamide 1,1-dioxide]"

# Same assay, conditions: Table IV; calpain I, 0.2 mM Succ-Leu-Tyr-MNA, pH 7.5; read-out: IC50
row,SMILES,IC50 [nM]
1,"CN1C(C(=O)N[C@H](C=O)Cc2ccccc2)=Cc2cc3c(cc2S1(=O)=O)OCCO3 [Cpd 26b, N-(6,7-Ethylenedioxy-2-methyl-2H-1,2-benzothiazine-3-carbonyl)-L-phenylalaninal 1,1-dioxide]",6
2,CCCCNC(=O)C(=O)[C@H](Cc1ccccc1)NC(=O)C1=Cc2cc3c(cc2S(=O)(=O)N1CC)OCCO3 [Cpd 27f],155

# Further lines, results first:
row,IC50 [nM],SMILES
1,37,"COC1=C(C(=O)N[C@H](C=O)Cc2ccccc2)N(C)S(=O)(=O)c2ccccc21 [Cpd 26d, N-(2-Methyl-4-methoxy-2H-1,2-benzothiazine-3-carbonyl)-L-phenylalaninal 1,1-dioxide]"
2,210,"CCCCNC(=O)C(=O)[C@H](Cc1ccccc1)NC(=O)C1=Cc2cc3c(cc2S(=O)(=O)N1C)OCCO3 [Cpd 27e, 3-((6,7-Ethylenedioxy-2-methyl-2H-1,2-benzothiazine-3-carbonyl)amino)-3-(S)-benzyl-2-oxo-N-butylpropanamide 1,1-dioxide]"
3,900,"CCCCNC(=O)C(=O)[C@H](Cc1ccccc1)NC(=O)C1=C(OC)c2ccccc2S(=O)(=O)N1C [Cpd 27g, 3-((4-Methoxy-2-methyl-2H-1,2-benzothiazine-3-carbonyl)amino)-3-(S)-benzyl-2-oxo-N-butylpropanamide 1,1-dioxide]"
4,~10000,"CCCCNC(=O)C(=O)[C@H](Cc1ccccc1)NC(=O)C1=C(O)c2ccccc2S(=O)(=O)N1C [Cpd 27h, 3-((4-Hydroxy-2-methyl-2H-1,2-benzothiazine-3-carbonyl)amino)-3-(S)-benzyl-2-oxo-N-butylpropanamide 1,1-dioxide]"

# Same assay, conditions: Table V; calpain I, 0.2 mM Succ-Leu-Tyr-MNA, pH 7.5; * mixture of diastereomers, a,b single diastereomers; read-out: IC50
row,IC50 [nM],SMILES
1,~2000,"CCCCNC(=O)C(=O)[C@H](Cc1ccccc1)NC(=O)C1Nc2ccccc2S(=O)(=O)N1C (stereo partly drawn) [Cpd 35e, 3-((3,4-Dihydro-4H-2-methyl-2H-1,2,4-benzothiadiazine-3-carbonyl)amino)-3-(S)-benzyl-2-oxo-N-butylpropanamide 1,1-dioxide]"

# Same assay, conditions: Table VI; calpain I, 0.2 mM Succ-Leu-Tyr-MNA, pH 7.5; read-out: IC50
row,SMILES,IC50 [nM]
1,"O=C[C@H](Cc1ccccc1)NC(=O)C1=Nc2ccccc2S(=O)(=O)N1 [Cpd 42a, N-(2H-1,2,4-Benzothiadiazine-3-carbonyl)-L-phenylalaninal 1,1-dioxide]",83
2,"CCCCNC(=O)C(=O)[C@H](Cc1ccccc1)NC(=O)C1=Nc2ccccc2S(=O)(=O)N1 [Cpd 42c, 3-((2H-1,2,4-Benzothiadiazine-3-carbonyl)amino)-3-(S)-benzyl-2-oxo-N-butylpropanamide 1,1-dioxide]",~5000

# Other lines, results leading:
row,IC50 [nM],SMILES
1,28,"O=C[C@H](Cc1ccccc1)NC(=O)C1=Nc2cc3c(cc2S(=O)(=O)N1)OCCO3 [Cpd 42b, N-(2H-6,7-Ethylenedioxy-1,2,4-benzothiadiazine-3-carbonyl)-L-phenylalaninal1,1-dioxide]"
2,~10000,"CCCCNC(=O)C(=O)[C@H](Cc1ccccc1)NC(=O)C1=Nc2cc3c(cc2S(=O)(=O)N1)OCCO3 [Cpd 42d, 3-((2H-6,7-Ethylenedioxy-1,2,4-benzothiadiazine-3-carbonyl)amino)-3-(S)-benzyl-2-oxo-N-butylpropanamide 1,1-dioxide]"
